Data: patent US20110104055A1, “SUBSTITUTED N-ARYL BENZAMIDES AND RELATED COMPOUNDS FOR TREATMENT OF AMYLOID DISEASES AND SYNUCLEINOPATHIES” (priority 2002, published 2011)

Tests used:
Assay type in all cases: biochemical
α-synuclein fibrils [1] = molecular target: T1, α-synuclein fibrils (Homo sapiens, UniProt P37840); experiment: Thioflavin T fluorometry, disruption of pre-formed α-synuclein fibrils (Example 12); conditions: 3 days; for % Inhibition α-synuclein (result ± S.D.), Thioflavin T fluorometry: 30 μg pre-fibrillized α-synuclein, 37° C.
T1 construct: purchased rPeptide
Procedure: In this assay, Thioflavin T binds specifically to α-synuclein fibrils, and this binding produces a fluorescence enhancement at 485 nm that is directly proportional to the amount of α-synuclein fibrils present. The higher the fluorescence, the greater the amount of α-synuclein fibrils present (Naki et al, Lab. Invest. 65:104-110, 1991; Levine III, Protein Sci. 2:404-410, 1993; Amyloid: Int. J. Exp. Clin. Invest. 2:1-6, 1995).
In this study, 30 μg of pre-fibrillized α-synuclein (rPeptide) was incubated at 37° C. for 3 days either alone or in the presence of compounds DC-0051-F1, F2, F3, F4, F5, F6 or EDTA (at α-synuclein:test compound weight ratios of 1:1, 1:0.1, 1:0.01 or 1:0.001). Following 3-days of co-incubation, 50 μl of each incubation mixture was transferred into a 96-well microtiter plate containing 150 μl of distilled water and 50 μl of a Thioflavin T solution (i.e. […] Thioflavin T in 250 mM phosphate buffer, pH 6.8). The fluorescence was read at 485 nm (444 nm excitation wavelength) using an ELISA plate fluorometer after subtraction with buffer alone or compound alone, as blank.

Aβ 1-42 fibrils [2] = molecular target: T2, Aβ 1-42 fibrils (Homo sapiens, UniProt P05067); experiment: Thioflavin T fluorometry, disruption of pre-formed Aβ 1-42 fibrils (Example 11); conditions: 30 μg pre-fibrillized Aβ 1-42, 37° C., 3 days
T2 construct: purchased Bachem Inc
Source text: In one study, Thioflavin T fluorometry was used to determine the effects of the compounds, and of EDTA (as a negative control). In this assay Thioflavin T binds specifically to fibrillar amyloid, and this binding produces a fluorescence enhancement at 485 nm that is directly proportional to the amount of amyloid fibrils formed. The higher the fluorescence, the greater the amount of amyloid fibrils formed (Naki et al., Lab. Invest. 65:104-110, 1991; Levine III, Protein Sci. 2:404-410, 1993; Amyloid: Int. J. Exp. Clin. Invest. 2:1-6, 1995).
Following 3-days of co-incubation, 50 μl of each incubation mixture was transferred into a 96-well microtiter plate containing 150 μl of distilled water and 50 μl of a Thioflavin T solution (i.e. 500 mM Thioflavin T in 250 mM phosphate buffer, pH 6.8). The fluorescence was read at 485 nm (444 nm excitation wavelength) using an ELISA plate fluorometer after subtraction with buffer alone or compound alone, as blank.

Aβ 1-42 fibrils [3] = molecular target: T2, Aβ 1-42 fibrils; experiment: Congo red binding assay, Aβ 1-42 fibrils (Example 11); conditions: 3-day incubation
Procedure: (§1) In the Congo red binding assay, the ability of a test compound to alter amyloid (in this case, Aβ) binding to Congo red is quantified. In this assay, Aβ 1-42 and test compounds were incubated for 3 days and then vacuum filtered through a 0.2 μm filter. The amount of Aβ 1-42 retained in the filter was then quantitated following staining of the filter with Congo red. After appropriate washing of the filter, any lowering of the Congo red color on the filter in the presence of the test compound (compared to the Congo red staining of the amyloid protein in the absence of the test compound) was indicative of the test compound's ability to diminish/alter the amount of aggregated and congophilic Aβ.
In one study, the ability of Aβ fibrils to bind Congo red in the absence or presence of increasing amounts of the compounds or EDTA (at Aβ:test compound weight ratios of 1:1, 1:0.1, 1:0.01 or 1:0.001) was determined.

α-synuclein fibrils [4] = molecular target: T1, α-synuclein fibrils; experiment: Congo red binding assay, α-synuclein fibrils (Example 12); conditions: 3-day incubation
Procedure: as §1, with “of a given test compound” for “of a test compound”, “this case, α-synuclein) binding to” for “this case, Aβ) binding to”, “this assay, α-synuclein and test” for “this assay, Aβ 1-42 and test”, “amount of α-synuclein retained in” for “amount of Aβ 1-42 retained in”, “and congophilic α-synuclein.” for “and congophilic Aβ.”
In one study, the ability of α-synuclein fibrils to bind Congo red in the absence or presence of increasing amounts of compounds DC-0051-F1, F2, F3, F4, F5, F6 and EDTA (at α-synuclein:test compound weight ratios of 1:1, 1:0.1, 1:0.01 or 1:0.001) was determined.

[5] = α-synuclein:test compound wt/wt ratio 1:0.001
[6] = α-synuclein:test compound wt/wt ratio 1:0.01
[7] = α-synuclein:test compound wt/wt ratio 1:0.1
[8] = α-synuclein:test compound wt/wt ratio 1:1
[9] = Aβ:test compound wt/wt ratio 1:0.001
[10] = Aβ:test compound wt/wt ratio 1:0.01
[11] = Aβ:test compound wt/wt ratio 1:0.1
[12] = Aβ:test compound wt/wt ratio 1:1

T2 sequence (P05067 672-713): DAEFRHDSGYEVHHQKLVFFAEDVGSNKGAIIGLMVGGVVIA

disruption/disassembly of pre-formed α-synuclein fibrils, in words (α-synuclein fibrils [1]; Thioflavin T fluorometry, all concentrations tested): dose-dependent disruption/disassembly
% Inhibition α-synuclein (result ± S.D.), Thioflavin T fluorometry (α-synuclein fibrils [1]; [5]): 13.8 ± 5.12%
% Inhibition α-synuclein (result ± S.D.), Thioflavin T fluorometry (α-synuclein fibrils [1]; [6]): 59.6±6.39%
% Inhibition α-synuclein (result ± S.D.), Thioflavin T fluorometry (α-synuclein fibrils [1]; [7]): 92.5±2.35%
% Inhibition α-synuclein (result ± S.D.), Thioflavin T fluorometry (α-synuclein fibrils [1]; [8]): 96.8 ± 2.82%
% Inhibition Aβ (result ± S.D.), Thioflavin T fluorometry (Aβ 1-42 fibrils [2]; [9]): 15.1 ± 3.81%
% Inhibition Aβ (result ± S.D.), Thioflavin T fluorometry (Aβ 1-42 fibrils [2]; [10]): 34.6 ± 2.21%
% Inhibition Aβ (result ± S.D.), Thioflavin T fluorometry (Aβ 1-42 fibrils [2]; [11]): 92.3 ± 0.19%
% Inhibition Aβ (result ± S.D.), Thioflavin T fluorometry (Aβ 1-42 fibrils [2]; [12]): 99.0 ± 0.77%
% Inhibition Aβ (result ± S.D.), Congo red binding (Aβ 1-42 fibrils [3]; [9]): 0.0 ± 2.64%
% Inhibition Aβ (result ± S.D.), Congo red binding (Aβ 1-42 fibrils [3]; [10]): 0.0 ± 3.25%
% Inhibition Aβ (result ± S.D.), Congo red binding (Aβ 1-42 fibrils [3]; [11]): 23.3 ± 5.01%
% Inhibition Aβ (result ± S.D.), Congo red binding (Aβ 1-42 fibrils [3]; [12]): 74.5 ± 2.69%
% Inhibition α-synuclein (result ± S.D.), Congo red binding (α-synuclein fibrils [4]; [5]): 0.0 ± 3.93%
% Inhibition α-synuclein (result ± S.D.), Congo red binding (α-synuclein fibrils [4]; [6]): 2.6 ± 4.90%
% Inhibition α-synuclein (result ± S.D.), Congo red binding (α-synuclein fibrils [4]; [7]): 23.3 ± 2.24%
% Inhibition α-synuclein (result ± S.D.), Congo red binding (α-synuclein fibrils [4]; [8]): 55.9 ± 2.65%
SMILES: O=C(Nc1ccc(O)c(O)c1)c1cc(O)c(O)c(F)c1 [DC-0051-F3, 4,5-Dihydroxy-3-fluoro-N-(3,4-dihydroxyphenyl)benzamide]
